# From the CATMoS acute toxicity set (Mansouri et al. 2021)
# Where a SMILES comes first, the peptide text is derived from it.
# Assay: GHS categories as the set defines them, by LD50: 1 up to 5, 2 up to 50, 3 up to 300, 4 up to 2000, 5 above 2000 mg/kg
# Details: rat; in vivo; po
row,Compound,GHS category
1,CCC(C)n1ncn(-c2ccc(N3CCN(c4ccc(OC[C@H]5CO[C@](Cn6cncn6)(c6ccc(Cl)cc6Cl)O5)cc4)CC3)cc2)c1=O (stereo partly specified),4
2,CNC(=O)C(=NNc1ccc(Cl)cc1)C(C)=O,5
3,CCCCCCCC/C=C\CCCCCCCCCCCC(=O)O,5
4,Clc1ccc(CNC2=NCCS2)cc1,3
5,CC(C)CCCC(C)C1CCC2C3CCC4CC(OP(=O)(O)O)CCC4(C)C3CCC12C (stereo unspecified),5
6,CCO[Si](CC(C)C)(OCC)OCC,5
7,CCOC(=O)[C@H](CCc1ccccc1)N[C@H]1CCCN2CCC[C@@H](C(=O)O)N2C1=O,5
8,Cc1nn(-c2ccc3cc(-c4ccccc4)c(=O)oc3c2)nc1-c1ccccc1,5
9,C=C[C@](C)(O)CC[C@@H]1[C@@]2(C)CCCC(C)(C)[C@@H]2CC[C@@]1(C)O,5
10,COc1ccccc1C=CC=O,5
11,O=C(CCl)N(c1ccccc1)c1c(Cl)cccc1Cl,5
12,COc1cccc(C(=O)NN(C(=O)c2cc(C)cc(C)c2)C(C)(C)C)c1C,5
13,CC(C)CCCCCCCCOCCCNCCC#N,5
14,COc1cc2c(cc1OC)[C@@H]1C[C@H](C[C@H]3CCCCN31)OC(=O)C=Cc1ccc(O)c-2c1,4
15,C=CC(C)(CCC=C(C)C)OC(=O)Cc1ccccc1 (stereo unspecified),5
16,C=C(C)CCO,5
17,Cc1cccc(Nc2ccncc2S(=O)(=O)NC(=O)NC(C)C)c1,5
18,COc1cc2nc(N3CCCC(N(C)Cc4ccc5c(c4)OCO5)C3)nc(N)c2cc1OC (stereo unspecified),4
19,CCCCC(=O)O[C@]1(C(=O)COC(C)=O)CC[C@H]2[C@@H]3CCC4=CC(=O)C=C[C@]4(C)[C@H]3[C@@H](O)C[C@@]21C,5
20,CCC(=O)CCC1C(C)=CCCC1(C)C (stereo unspecified),5
21,O=[N+]([O-])c1ccc2nc[nH]c2c1,4
22,O=c1c2ccccc2[nH]c2cc3c(=O)c4ccccc4[nH]c3cc12,5

row,Compound,GHS category
1,O=[N+]([O-])c1cc2c(Nc3ccc(F)c(Cl)c3)ncnc2cc1S(=O)(=O)c1ccccc1,5
2,CCCCCCCCCCCCCCCCCC#N,5
3,CCCC(Cl)CCCC(Cl)CCC(Cl)CCC(Cl)CCC(Cl)CCCC(Cl)CCC (stereo unspecified),5
4,CCC(Oc1ccc(F)c(C(F)(F)F)c1)C(O)=NCc1ccccc1 (stereo unspecified),5
5,CCCCCCCC/C=C\CCCCCCCCCCCCC,5
6,CCCCCCOC(=O)CCCCC(=O)OCCCCCC,5
7,COc1ccccc1N1CCN(/C(N)=N/c2cc(Cl)cc(Cl)c2)CC1,4
8,COCCOC=C1OC2=C(C(=O)N1c1ccccn1)N(C)S(=O)(=O)c1cc(Cl)sc12,2
9,CCCCCCOC(=O)C(C)CC (stereo unspecified),5
10,CC(=O)Nc1ccc(/N=N/c2c(S(=O)(=O)O)cc3cc(NC(=O)Nc4ccc5c(O)c(/N=N/c6ccccc6)c(S(=O)(=O)O)cc5c4)ccc3c2O)cc1,5
11,CCOc1cc(C)c2[nH]c(=O)sc2c1,5
12,C=CC(=O)O[Si](C(C)C)(C(C)C)C(C)C,5
13,COC(=O)c1ccc2c(C3CCCC3)cn(C)c2c1,5
14,NCC1CCC(N)C(OC2C(N)CC(N)C(OC3OC(CO)C(O)C(N)C3O)C2O)O1 (stereo unspecified),5
15,CC(C)OC(=O)c1cc(Cl)ccc1OC(N)=O,5
16,COC(=O)[C@H](Cc1ccccc1)NC(=O)[C@@H](N)CC(=O)O (H-Asp-Phe-OMe),5
17,CCOc1cc(N)c(Cl)cc1C(=O)NCC1CN(Cc2ccc(F)cc2)CCO1 (stereo unspecified),5
18,CNCC(O)CO (stereo unspecified),5
19,CC(=O)OCC(C)=CCCC1(C)C2CC3C(C2)C31C (stereo unspecified),5
20,C=CC/C=C/C/C=C/C/C=C/C,5
21,C=CCCCCCCCCC(=O)OCC,5
22,COc1cc(OC)c(NC(=O)c2cc3ccccc3cc2O)cc1Cl,5

row,Compound,GHS category
1,CCOC(=O)CC#N,5
2,CC(Oc1cccc(Cl)c1)C(=O)O (stereo unspecified),4
3,Cc1c(Cl)ccc(O)c1Cl,5
4,CC(=O)C(C)O (stereo unspecified),5
5,C1CCCCCC2=C(CCCC1)CCCO2,5
6,CC(=O)OC1CCC2C3CCC4CC(=O)CCC4(C)C3CCC12C (stereo unspecified),5
7,O=C1CCC(N2C(=O)c3ccccc3C2=O)C(=O)N1CN1CCOCC1 (stereo unspecified),5
8,NC(CCOc1ccc(C(=NO)C(=O)NC2CN(C(C(=O)O)c3ccc(O)cc3)C2=O)cc1)C(=O)O (stereo unspecified),5
9,COc1nc(Nc2ccc(C=Cc3ccc(Nc4nc(OC)nc(N(CCO)CCO)n4)cc3S(=O)(=O)O)c(S(=O)(=O)O)c2)nc(N(CCO)CCO)n1,5
10,Oc1ccc(OCc2ccccc2)cc1,5
11,COC(=O)c1ccc(C(=O)O)cc1[N+](=O)[O-],5
12,CN1C(C(=O)Nc2ccccn2)=C(Nc2ccccn2)c2sc(Cl)cc2S1(=O)=O,2
13,CCOc1ccc(NC(=O)c2cc3ccccc3cc2O)cc1,5
14,O=C(O)CN(CC(=O)O)CC(O)CN(CC(=O)O)CC(=O)O,5
15,CCC1(CC)COP(=S)(N(SN(C)C(=O)ON=C(C)SC)C2CCCCC2)OC1,5
16,CC[n+]1c(-c2ccccc2)c2cc(N)ccc2c2ccc(N)cc21,5
17,OC[C@H]1NC[C@H](O)[C@@H](O)[C@@H]1O,5
18,CC(=O)O[C@]1(C(C)=O)CC[C@H]2[C@@H]3C=C(C)C4=CC(=O)CC[C@@H]4[C@H]3CC[C@@]21C,5
19,CCCCCC1COCCC1OC(C)=O (stereo unspecified),5
20,CCCCCCC#CC(OC)OC,5
21,O=C(O)CC(=O)C(=O)O,5
22,O=C1OC(CN2CCCCC2)CC12CC(CN1CCCCC1)OC2=O (stereo unspecified),5

row,Compound,GHS category
1,CCCc1c(Cc2ccc(-c3ccccc3-c3nn[nH]n3)cc2)c(N2CCCCC2)nc2ncnn12,4
2,CC(C)c1cc2c(cc1S(=O)(=O)O)[C@@]1(C)CCC[C@@](C)(C(=O)O)[C@@H]1CC2,5
3,Cc1cc(C)c(S(=O)(=O)O)cc1N=Nc1cc(S(=O)(=O)O)c2ccccc2c1O,5
4,C[N+](C)(C)CC(=O)[O-],5
5,Cc1cc2c(cc1S(N)(=O)=O)S(=O)(=O)CCC2,5
6,CC(CCC(=O)O)C(=O)O (stereo unspecified),4
7,CCC[Si](OCC)(OCC)OCC,5
8,C[Si](Cl)(Cl)C1CCCCC1,5
9,OCCOc1ccc(OCCO)cc1,5
10,CC/C=C/C=C\CCCCCCCCOC(C)=O,4
11,COc1ccccc1C1NC(=O)C(C)S1 (stereo unspecified),5
12,OC(c1ccccc1)c1ccc(-c2ccccc2)cc1 (stereo unspecified),5
13,FC1(F)COC1(F)F,4
14,C=C(C)C1CCC(C)C(OC(C)=O)C1 (stereo unspecified),5
15,O=P(O)(O)CN(CP(=O)(O)O)CP(=O)(O)O,5
16,NC(=O)Oc1ccc(Br)cc1C(=O)Oc1ccccc1,5
17,COC(=O)CCCCCCCCCC[Si](C)(C)Cl,5
18,CCCCOC(=O)C=Cc1ccccc1,5
19,O=S(=O)(O)c1ccc(/N=N/c2c(O)ccc3cc(S(=O)(=O)O)ccc23)cc1,5
20,CCC1(C)Oc2cccc(OC(=O)N(C)C(C)=O)c2O1 (stereo unspecified),3
